Laboratory results from PubChem BioAssay AID720695 (Broad Institute, 2013).
Calls of active or inactive are those of the source.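 Rule for the calls: active = compounds lowering Shn3 signal with a fitted half-maximal concentration at most twice the top tested dose; inconclusive = flat curve with 30 to 70% loss, or poor fit; inactive = the rest.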

molecular target: Schnurri-3 (HIVEP3) mRNA; experiment: reduction of Shn3 mRNA levels, dose response, orthogonal assay for Schnurri-3 inhibitor project, Clone20 cells, qPCR, dry powder (AID 720695); settings: overnight

SMILES	AC50
CN(C(=O)COc1ccccc1C(=O)NCCOc1ccccc1)c1ccccc1	26.6 µM
COc1ccc(NC(=O)c2nc(S(=O)(=O)Cc3cccc(C)c3)ncc2Cl)c(OC)c1	8.91 µM
CC(C)[C@H](NC(=O)OC(C)(C)C)c1nnc(S(=O)(=O)Cc2c(F)cccc2Cl)o1	22.3 µM
CCOC(=O)c1ccc(NC(=O)Cn2ncc(Cl)c(Cl)c2=O)cc1	11.6 µM

More lines, now with the values ahead:

AC50	SMILES
28 µM	CCCc1nnc(NC(=O)c2nc(S(=O)(=O)Cc3ccc(C)cc3)ncc2Cl)s1
13.7 µM	O=C(c1nnsc1S(=O)c1ccc(Cl)cc1)N1CCOCC1 (stereo not drawn)
6.67 µM	COc1cc(CN2CCc3ccccc3C2)ccc1O

same assay, conditions: overnight, at 35 µM (top of the series)

SMILES	Shn3 expression, relative signal
COc1cc2ncnc(N[C@H](C)c3ccccc3)c2cc1OC	inactive
Cc1cc(N2CCCC2=O)cc(C)c1S(=O)(=O)NCCOc1ccc(C(C)(C)C)cc1	inactive
CC(=O)N1CCN(C(=O)CCc2cc(C(C)(C)C)c(O)c(C(C)(C)C)c2)CC1	inactive
O=C1CSc2ccc(C(=O)Nc3cccc(S(=O)(=O)Nc4ccc(Br)cc4)c3)cc2N1	inactive
COc1ccc2c(c1)c(CC(=O)Nc1cc(C)ccc1C)c(C)n2C(=O)c1ccc(Cl)cc1	inactive
CCCOc1ccccc1C1CC(=O)Nc2cc3c(cc21)OCO3 (stereo not drawn)	inactive
Cc1ccc2cc(CN(CC3CCCO3)C(=O)NC3CCCCC3)c(=O)[nH]c2c1C (stereo not drawn)	inactive
CN(C)c1nc(-c2ccccn2)nnc1-c1ccccc1	inactive
O=c1c2ccccc2nc2n1C(CSCc1ccc(Cl)cc1Cl)CS2 (stereo not drawn)	inactive
COc1ccc(Nc2nc(N3CCCCC3)c3ccccc3n2)cc1	inactive
Nc1nonc1C(=O)NCCNCc1cc(Br)ccc1OCc1ccc(F)cc1	inactive
CN(C)S(=O)(=O)c1cccc(NC(=O)c2cccc(S(=O)(=O)N3CCc4ccccc43)c2)c1	inactive
Fc1ccc(-n2nnnc2-c2cnc(-c3cccs3)nc2C(F)(F)F)cc1	inactive
CC(C)(C)NC(=O)CSc1nc2ccc(NC(=O)CSc3nnnn3Cc3ccccc3)cc2s1	inactive

The remaining lines, values ahead:

Shn3 expression, relative signal	SMILES
inactive	COc1ccc(NS(=O)(=O)c2ccc(C(=O)N3CCCCCC3)cc2)cc1
inactive	CC(=O)Nc1cccc(NC(=O)CSc2ncc(-c3ccc(Cl)cc3)n2Cc2ccco2)c1
inactive	CCOC(=O)C1(Cc2ccc(Cl)cc2)CCN(C(C)Cc2ccc(O)c(OC)c2)CC1 (stereo not drawn)
inactive	Cc1cc2c(cc(C(=O)N3CCC(C(=O)NC4CCCC4)CC3)n2Cc2c(F)cccc2Cl)o1
inactive	COc1ccccc1N1CCN(c2ncc(C(=O)N3CCN(c4cccc(Cl)c4)CC3)c3ccccc23)CC1
inactive	CN(CC(=O)Nc1cccc(S(=O)(=O)N2CCOCC2)c1)CC(=O)Nc1ccc(Cl)c(C(F)(F)F)c1
inactive	CCOC(=O)C1CCN(C(=O)c2ccc(OCC(=O)Nc3cccc(C(F)(F)F)c3)c(OC)c2)CC1
